Data taken from patent publication US20230075521A1, “RESVERATROL PHARMACEUTICAL COMPOSITIONS AND METHODS OF USE THEREOF” (priority 2021, published 2023).
Values joined by “and” are separate entries in the source; they are usually repeats but may differ in a detail not shown here. Equal values may be shown once.

Assays:
[1] = Mouse PK study, resveratrol in brain; assay type: in vivo, CD-1 mice; conditions: male mice, single dose 50 mg/kg oral, 30 min
Method: (§1) For mouse PK studies, male CD-1 mice (Charles River Canada) were used. Animals were food fasted for 4 h prior to dosing and water fasted 1 h prior to dosing. […] At each time point (15 min, 30 min, 1 h, 4 h) 3 mice of each group were terminally bled via cardiac puncture under red light. Blood was collected into sodium-EDTA tubes under red light and spun at […] for 10 min at 6800×g. Plasma was collected and split into amber tubes. Both left and right brain were collected and snap-frozen in liquid nitrogen and stored at […] Drug concentrations were analyzed by liquid chromatography-mass spectrometry (LC-MS/MS) by KDM Laboratories Inc. For rat PK studies, male Sprague-Dawley rats (Charles River Canada) were used. […] Blood was collected under red light from the trunk at 30 min into K3EDTA tubes and centrifuged immediately at 4° C. for 10 min at 6800×g, and plasma collected into amber tubes. Brains were collected and snap-frozen in liquid nitrogen and stored at […] Drug concentration was analyzed by LC-MS/MS.

[2] = Rat PK study, resveratrol in plasma at 30 min; assay type: in vivo; conditions: male, oral, 50 mg/kg, Sprague-Dawley rats, single dose, 30 min after treatment
Method: as §1

[3] = test system: AD-related gene expression; assay: RT-qPCR of brain regions, long-term treatment; assay type: in vivo, 3×Tg-AD mouse; conditions: 3×Tg-AD mice, 50 mg/kg, 9 months
Method: (§2) At study endpoints (age 15 months for sub-chronic study, age 13 months for long-term study), mice were anaesthetized with isoflurane and blood was collected by transcardial puncture. Blood was stored on ice and then centrifuged at 10,000×g at 4° C. for 10 min to collect serum and stored at −80° C. until use. The brain was then extracted and quickly dissected on ice to collect prefrontal cortex (PFC), hippocampus, entorhinal cortex (ERC), and cerebellum, which were immediately frozen in liquid nitrogen. The samples were stored at −80° C. until processed for RNA or protein extraction. For each mouse, brain regions from one hemisphere were used for RNA preparation and qPCR and sections from the other hemisphere were used for protein work including ELISAs.

[4] = test system: ERC cytokines and chemokines; assay: Entorhinal cortex (ERC) cytokine and chemokine levels (48-Plex ProcartaPlex, Luminex); assay type: in vivo, 3×Tg-AD mouse
Method: as §2
Protein lysates were extracted by sonicating tissue in M-PER Mammalian Protein Extraction Reagent (Thermo Fisher Scientific) supplemented with protease inhibitor (Thermo Fisher Scientific) and phosphatase inhibitor (Thermo Fisher Scientific). Total protein was quantified using Pierce BCA Protein Assay Kit (Thermo Fisher Scientific) and read at 562 nm using EnVision (Perkin Elmer).
Human Aβ1-42, Aβ1-40, phosphorylated tau Ser 396, phosphorylated tau Thr181, and total tau were measured in brain tissue by enzyme linked immuno-sorbent assay (ELISA; Invitrogen by Thermo) and normalized to total protein. All the kits were used as per the manufacturer's instructions and measured using the EnVision® multimode plate reader (Perkin Elmer). Serum and brain tissue protein extracts were analyzed for cytokine and chemokine levels using the Immune Monitoring 48-Plex Mouse ProcartaPlex™ Panel (Invitrogen by Thermo) according to manufacturer's standard protocol and read using Luminex xMAP (multi-analyte profiling) technology.

[5] = female 3×Tg-AD mice, 50 mg/kg oral, 9 months
[6] = female 3×Tg-AD mice, 50 mg/kg oral, 9 months, 50 mg/kg
[7] = male 3×Tg-AD mice, 50 mg/kg oral, 9 months
[8] = male 3×Tg-AD mice, 50 mg/kg oral, 9 months, 50 mg/kg

Structure (SMILES): Oc1ccc(/C=C/c2cc(O)cc(O)c2)cc1 [RSV, (trans-)resveratrol]
- Resveratrol accumulation in the brain [1]: not detected in the brain
- concentration at 30 min [2]: 180 ± 33.6 ng/mL
- Adam10 expression in PFC, increase vs vehicle [3]: 20.44%
- IFNg ERC level, change vs vehicle [4, 5]: -0.64 pg/mL
- IL-1b ERC level, change vs vehicle [4, 5]: -1.12 pg/mL
- IL-2 ERC level, change vs vehicle [4, 5]: 18.07 pg/mL
- IL-2RA ERC level, change vs vehicle [4, 5]: -0.95 pg/mL
- IL-3 ERC level, change vs vehicle [4, 5]: -0.34 pg/mL
- IL-5 ERC level, change vs vehicle [4, 5]: -6.60 pg/mL
- IL-9 ERC level, change vs vehicle [4, 5]: 7.25 pg/mL
- IL- 10 ERC level, change vs vehicle [4, 5]: 0.54 pg/mL
- IL-12p70 ERC level, change vs vehicle [4, 5]: 1.75 pg/mL
- IL-13 ERC level, change vs vehicle [4, 5]: 1.74 pg/mL
- IL-17A ERC level, change vs vehicle [4, 5]: 0.69 pg/mL
- IL-22 ERC level, change vs vehicle [4, 5]: -0.13 pg/mL
- IL-25/IL-17 ERC level, change vs vehicle [4, 5]: -23.30 pg/mL
- IL-27 ERC level, change vs vehicle [4, 5]: -0.87 pg/mL
- IL-33 ERC level, change vs vehicle [4, 5]: -56.09 pg/mL
- LIX ERC level, change vs vehicle [4, 5]: -12.67 pg/mL
- M-CSF ERC level, change vs vehicle [4, 5]: -0.32 pg/mL
- MCP-3 ERC level, change vs vehicle [4, 5]: 1.94 pg/mL
- MIP-2 ERC level, change vs vehicle [4, 5]: -2.59 pg/mL
- RANTES ERC level, change vs vehicle [4, 5]: -1.97 pg/mL
- TNFa ERC level, change vs vehicle [4, 5]: -10.12 pg/mL
- VEGF-A ERC level, change vs vehicle [4, 5]: 4.80 pg/mL
- sRANKL ERC level, change vs vehicle [4, 5]: 0.70 pg/mL
- IL-6 ERC level, change vs vehicle [4, 6]: 5.44 ± 2.1 pg/mL and 5.44 pg/mL
- IL-7 ERC level, change vs vehicle [4, 6]: 40.12 ± 15.04 pg/mL and 40.12 pg/mL
- IL-18 ERC level, change vs vehicle [4, 6]: -84.91 ± 35.55 pg/mL and -84.91 pg/mL
- IL-19 ERC level, change vs vehicle [4, 6]: 105.7 ± 22.58 pg/mL and 105.70 pg/mL
- IL-23 ERC level, change vs vehicle [4, 6]: 42.53 ± 10.42 pg/mL and 42.53 pg/mL
- IL-28 ERC level, change vs vehicle [4, 6]: 146.9 ± 34.42 pg/mL and 146.90 pg/mL
- IP-10 ERC level, change vs vehicle [4, 6]: 21.13 ± 4.32 pg/mL and 21.13 pg/mL
- IFNg ERC level, change vs vehicle [4, 7]: 1.51 pg/mL
- IL-1b ERC level, change vs vehicle [4, 7]: 0.97 pg/mL
- IL-2 ERC level, change vs vehicle [4, 7]: 31.55 pg/mL
- IL-3 ERC level, change vs vehicle [4, 7]: 0.18 pg/mL
- IL-5 ERC level, change vs vehicle [4, 7]: 3.37 pg/mL
- IL-6 ERC level, change vs vehicle [4, 7]: 2.70 pg/mL
- IL-7 ERC level, change vs vehicle [4, 7]: 41.08 pg/mL
- IL-9 ERC level, change vs vehicle [4, 7]: 19.29 pg/mL
- IL-12p70 ERC level, change vs vehicle [4, 7]: 0.61 pg/mL
- IL-13 ERC level, change vs vehicle [4, 7]: 5.16 pg/mL
- IL-17A ERC level, change vs vehicle [4, 7]: 2.77 pg/mL
- IL-18 ERC level, change vs vehicle [4, 7]: 42.33 pg/mL
- IL-19 ERC level, change vs vehicle [4, 7]: 104.30 pg/mL
- IL-22 ERC level, change vs vehicle [4, 7]: 2.18 pg/mL
- IL-23 ERC level, change vs vehicle [4, 7]: 41.51 pg/mL
- IL-25/IL-17 ERC level, change vs vehicle [4, 7]: 15.36 pg/mL
- IL-27 ERC level, change vs vehicle [4, 7]: 2.75 pg/mL
- IL-28 ERC level, change vs vehicle [4, 7]: 130.90 pg/mL
- IL-33 ERC level, change vs vehicle [4, 7]: 64.64 pg/mL
- IP-10 ERC level, change vs vehicle [4, 7]: 13.80 pg/mL
- LIX ERC level, change vs vehicle [4, 7]: 16.39 pg/mL
- M-CSF ERC level, change vs vehicle [4, 7]: 0.50 pg/mL
- MCP-3 ERC level, change vs vehicle [4, 7]: 0.76 pg/mL
- RANTES ERC level, change vs vehicle [4, 7]: 1.40 pg/mL
- TNFa ERC level, change vs vehicle [4, 7]: 23.73 pg/mL
- VEGF-A ERC level, change vs vehicle [4, 7]: 3.55 pg/mL
- sRANKL ERC level, change vs vehicle [4, 7]: 2.59 pg/mL
- IL-2RA ERC level, change vs vehicle [4, 8]: 0.77 ± 0.043 pg/mL and 0.77 pg/mL
- MIP-2 ERC level, change vs vehicle [4, 8]: 7.51 ± 2.55 pg/mL and 7.51 pg/mL
- IL-9 in ERC, increase vs vehicle ([4]; males and females combined): 65.4 ± 25.69 pg/mL
